What was measured:
[1] = target: T1, KRASwt (Homo sapiens, UniProt P01116); experiment: Bio-Biochem-PPI-HTRF Ras-SOS1 interaction assay (KRAS wt); type: biochemical; conditions: 5 nM
T1 construct: made in house; host or cells: E. coli BL21 (DE3)
Outline: (§1)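 Compounds tested in duplicate (10 μM to 0.01 μM) for disruption of His-hSOS1 binding to GST-tagged wild-type or G12D K-Ras in HEPES pH 7.4 buffer. TR-FRET read (Eu donor, XL665 acceptor) after about 10 min or longer; IC50 derived from the 665/620 nm emission ratio.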

[2] = target: T2, KRASG12D (Homo sapiens, UniProt P01116, G12D); experiment: Bio-Biochem-PPI-HTRF Ras-SOS1 interaction assay (KRAS G12D); type: biochemical; conditions: 5 nM
T2 construct: made in house; host or cells: E. coli BL21 (DE3)
Outline: as §1

T2 sequence (P01116 1-188 isoform P01116-2 G12D): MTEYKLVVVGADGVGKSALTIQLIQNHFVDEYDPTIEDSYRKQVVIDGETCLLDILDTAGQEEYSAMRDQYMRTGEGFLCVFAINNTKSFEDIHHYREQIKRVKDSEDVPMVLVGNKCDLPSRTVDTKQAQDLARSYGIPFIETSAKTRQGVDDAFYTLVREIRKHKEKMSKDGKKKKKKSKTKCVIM
T1 sequence (P01116 1-188 isoform P01116-2): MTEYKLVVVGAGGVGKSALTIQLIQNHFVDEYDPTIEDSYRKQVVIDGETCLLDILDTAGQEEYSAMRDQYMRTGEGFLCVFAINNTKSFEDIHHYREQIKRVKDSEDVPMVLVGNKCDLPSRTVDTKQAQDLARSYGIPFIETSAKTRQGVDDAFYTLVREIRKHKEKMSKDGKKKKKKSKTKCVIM

| IC50 [1] [µM] | IC50 [2] [µM] | SMILES |
| --- | --- | --- |
| < 5 | < 5 | C#Cc1c(F)ccc2cc(O)cc(-c3ncc4c(N5CCOCC6(CN(C(=O)[C@@H]7CC7(F)F)C6)C5)nc(OC[C@@]56CCCN5C[C@H](F)C6)nc4c3F)c12 [compound 301, ((S)-2,2-difluorocyclopropyl) (9-(7-(8-ethynyl-7-fluoro-3-hydroxynaphthalen-1-yl)-8-fluoro-2-(((2R,7aS)-2-fluorotetrahydro-1H-pyrrolizin-7a(5H)-yl)methoxy)pyrido[4,3-d]pyrimidin-4-yl)-6-oxa-2,9-diazaspiro[3.6]decan-2-yl)methanone] |
| < 5 | ≥ 5 | C[C@H](Oc1nc(N2CCOC3(CNC3)C2)c2cc(Cl)c(-c3ccc(F)c4sc(N)c(C#N)c34)c(F)c2n1)[C@@H]1CCCN1C (single isomer, unassigned; atropisomer 1) [compound 128] |
| ≥ 5 | ≥ 5 | CN1CCC[C@H]1COc1nc2c(c(N3CCCCC4(CN(C(=O)C5CC5(F)F)C4)C3)n1)CCN(c1cccc3cccc(Cl)c13)C2 (stereo partly drawn) [compound 236, (6-(7-(8-chloronaphthalen-1-yl)-2-(((S)-1-methylpyrrolidin-2-yl)methoxy)-5,6,7,8-tetrahydropyrido[3,4-d]pyrimidin-4-yl)-2,6-diazaspiro[3.6]decan-2-yl)(2,2-difluorocyclopropyl)methanone] |
| < 5 | < 5 | COC1CN(C(=O)N2CC3(CCCCN(c4nc(OC[C@@]56CCCN5C[C@H](F)C6)nc5c(F)c(-c6ccc(F)c7sc(N)c(C#N)c67)c(Cl)cc45)C3)C2)C1 [compound 306, 2-amino-4-(6-chloro-8-fluoro-2-(((2R,7aS)-2-fluorotetrahydro-1H-pyrrolizin-7a(5H)-yl)methoxy)-4-(2-(3-methoxyazetidine-1-carbonyl)-2,6-diazaspiro[3.6]decan-6-yl)quinazolin-7-yl)-7-fluorobenzo[b]thiophene-3-carbonitrile] |

More lines, now with the values behind:

| SMILES | IC50 [1] [µM] | IC50 [2] [µM] |
| --- | --- | --- |
| CN(C)C(=O)N1CC2(CCCN(c3nc(OC[C@@]45CCCN4C[C@H](F)C5)nc4c(F)c(-c5ccc(F)c6sc(N)c(C#N)c56)c(Cl)cc34)C2)C1 [compound 119, 6-(7-(2-amino-3-cyano-7-fluorobenzo[b]thiophen-4-yl)-6-chloro-8-fluoro-2-(((2R,7aS)-2-fluorotetrahydro-1H-pyrrolizin-7a(5H)-yl)methoxy)quinazolin-4-yl)-N,N-dimethyl-2,6-diazaspiro[3.5]nonane-2-carboxamide] | < 5 | < 5 |
| N#Cc1c(N)sc2c(F)ccc(-c3c(Cl)cc4c(N5CCCCC6(CN(C(=O)C7(F)CC7)C6)C5)nc(OC[C@@]56CCCN5C[C@H](F)C6)nc4c3F)c12 [compound 253, 2-amino-4-(6-chloro-8-fluoro-4-(2-(1-fluorocyclopropane-1-carbonyl)-2,6-diazaspiro[3.6]decan-6-yl)-2-(((2R,7aS)-2-fluorotetrahydro-1H-pyrrolizin-7a(5H)-yl)methoxy)quinazolin-7-yl)-7-fluorobenzo[b]thiophene-3-carbonitrile] | < 5 | < 5 |
| C#CN1CCC2(CCN(c3nc(OC[C@@]45CCCN4C[C@H](F)C5)nc4c(F)c(-c5ccc(F)c6sc(N)c(C#N)c56)c(Cl)cc34)C2)C1=O (stereo partly drawn) [compound 225, 2-amino-4-(6-chloro-4-(7-ethynyl-6-oxo-2,7-diazaspiro[4.4]nonan-2-yl)-8-fluoro-2-(((2R,7aS)-2-fluorotetrahydro-1H-pyrrolizin-7a(5H)-yl)methoxy)quinazolin-7-yl)-7-fluorobenzo[b]thiophene-3-carbonitrile] | < 5 | < 5 |
| CC(C)=C(C#N)C(=O)N1CC2(C1)CN(c1nc(OC[C@@]34CCCN3C[C@H](F)C4)nc3c(F)c(-c4ccc(F)c5sc(N)c(C#N)c45)c(Cl)cc13)CCO2 [compound 245, 2-amino-4-(6-chloro-4-(2-(2-cyano-3-methylbut-2-enoyl)-5-oxa-2,8-diazaspiro[3.5]nonan-8-yl)-8-fluoro-2-(((2R,7aS)-2-fluorotetrahydro-1H-pyrrolizin-7a(5H)-yl)methoxy)quinazolin-7-yl)-7-fluorobenzo[b]thiophene-3-carbonitrile] | < 5 | < 5 |
| N#Cc1c(N)sc2c(F)ccc(-c3c(Cl)cc4c(N5CCCCC6(CN(C(=O)c7ccnn7CC(F)F)C6)C5)nc(OC[C@@]56CCCN5C[C@H](F)C6)nc4c3F)c12 [compound 208, 2-amino-4-(6-chloro-4-(2-(1-(2,2-difluoroethyl)-1H-pyrazole-5-carbonyl)-2,6-diazaspiro[3.6]decan-6-yl)-8-fluoro-2-(((2R,7aS)-2-fluorotetrahydro-1H-pyrrolizin-7a(5H)-yl)methoxy)quinazolin-7-yl)-7-fluorobenzo[b]thiophene-3-carbonitrile] | < 5 | < 5 |
| CN(C)CC(=O)N1CC2(CCCN(c3nc(OC[C@@]45CCCN4C[C@H](F)C5)nc4c(F)c(-c5ccc(F)c6sc(N)c(C#N)c56)c(Cl)cc34)C2)C1 [compound 144, 2-amino-4-(6-chloro-4-(2-(dimethylglycyl)-2,6-diazaspiro[3.5]nonan-6-yl)-8-fluoro-2-(((2R,7aS)-2-fluorotetrahydro-1H-pyrrolizin-7a(5H)-yl)methoxy)quinazolin-7-yl)-7-fluorobenzo[b]thiophene-3-carbonitrile] | < 5 | < 5 |
| N#Cc1c(N)sc2c(F)ccc(-c3c(Cl)cc4c(N5CCCCC6(CN(C(=O)C7CC7)C6)C5)nc(OC[C@@]56CCCN5C[C@H](F)C6)nc4c3F)c12 [compound 201, 2-amino-4-(6-chloro-4-(2-(cyclopropanecarbonyl)-2,6-diazaspiro[3.6]decan-6-yl)-8-fluoro-2-(((2R,7aS)-2-fluorotetrahydro-1H-pyrrolizin-7a(5H)-yl)methoxy)quinazolin-7-yl)-7-fluorobenzo[b]thiophene-3-carbonitrile] | < 5 | < 5 |
| N#Cc1c(N)sc2c(F)ccc(-c3c(Cl)cc4c(N5CCCCC6(CN(C(=O)C7CC7C(F)F)C6)C5)nc(OC[C@@]56CCCN5C[C@H](F)C6)nc4c3F)c12 (stereo partly drawn) [compound 287, 2-amino-4-(6-chloro-4-(2-(2-(difluoromethyl)cyclopropane-1-carbonyl)-2,6-diazaspiro[3.6]decan-6-yl)-8-fluoro-2-(((2R,7aS)-2-fluorotetrahydro-1H-pyrrolizin-7a(5H)-yl)methoxy)quinazolin-7-yl)-7-fluorobenzo[b]thiophene-3-carbonitrile] | < 5 | < 5 |
| Cn1nc(C(F)F)cc1C(=O)N1CC2(CCCCN(c3nc(OC[C@@]45CCCN4C[C@H](F)C5)nc4c(F)c(-c5ccc(F)c6sc(N)c(C#N)c56)c(Cl)cc34)C2)C1 [compound 343, 2-amino-4-(6-chloro-4-(2-(3-(difluoromethyl)-1-methyl-1H-pyrazole-5-carbonyl)-2,6-diazaspiro[3.6]decan-6-yl)-8-fluoro-2-(((2R,7aS)-2-fluorotetrahydro-1H-pyrrolizin-7a(5H)-yl)methoxy)quinazolin-7-yl)-7-fluorobenzo[b]thiophene-3-carbonitrile] | < 5 | < 5 |

Reference: patent US20240109918A1, “HETEROCYCLIC COMPOUNDS AND USES THEREOF” (Kumquat Biosciences Inc., priority 2022, published 2024)
